Literature values, collected in patent publication US10466148B2, “Use of platinum wire electrode and synthetic fiber for flow assisted electro-enhanced solid phase microextraction” (KING FAHD UNIVERSITY OF PETROLEUM AND MINERALS, priority 2015, dated 2019).

What was measured:
[1] = not given; remark: listed apart in the source
[2] = not given; remark: listed apart in the source
[3] = not given; remark: listed apart in the source

## Clc1ccc(Oc2ccccc2)cc1 [CPPE, 4-chlorophenyl phenyl ether]
other
  Henry's law constant at 20° C.: 0.012
[1]
  Vapor pressure at 20-25° C.: 0.0016 mmHg
[2]
  Diffusion coefficient in water: 6.18E−06 cm^2 s^−1
[3]
  Diffusion coefficient in air: 0.048 cm^2 s^−1

## Brc1ccc(Oc2ccccc2)cc1 [BPPE, 4-bromophenyl phenyl ether]
other
  Henry's law constant at 20° C.: 0.009
[1]
  Vapor pressure at 20-25° C.: 0.0005 mmHg
[2]
  Diffusion coefficient in water: 6.27E−06 cm^2 s^−1
[3]
  Diffusion coefficient in air: 0.047 cm^2 s^−1
